By IC50 is commonly meant the concentration at which inhibition is half-maximal.

Experimental findings from patent publication US20220106296A1, “CYANOTRIAZOLE COMPOUNDS AND USES THEREOF” (Novartis AG, priority 2018, published 2022) are described below.

Assay type in all cases: cell-based
In assay [1] the test system is intracellular T. cruzi amastigotes. Briefly: T. cruzi amastigote growth inhibition assay (NIH 3T3 host cells, β-galactosidase readout). The settings on record: Trypanosoma cruzi, NIH3T3, read-out: (c) T.c.* IC50. On the procedure: NIH 3T3 fibroblast cells (ATCC) were maintained in RPMI-1640 medium (Life Technologies) supplemented with 10% heat-inactivated fetal bovine serum and 100 IU penicillin/100 μg/ml streptomycin at 37° C./5% CO2. T. cruzi Tulahuen parasites constitutively expressing E. coli β-galactosidase were maintained in tissue culture as an infection in NIH 3T3 fibroblast cells. Briefly, 2×10^7 T. cruzi trypomastigotes were used to infect 6×10^5 NIH 3T3 cells growing in T75 CELLSTAR tissue culture flasks and cultured at 37° C./5% CO2 until proliferating intracellular parasites lysed host 3T3 cells and were released into the culture medium (typically 6-7 days). During the infection, the tissue culture medium was changed every two days. Number of T. cruzi trypomastigotes present in 1 ml of medium was determined using a haemocytometer.
To determine compound potency on intracellular T. cruzi amastigotes, NIH 3T3 cells were re-suspended in phenol red-free RPMI-1640 medium containing 3% heat-inactivated fetal bovine serum and 100 IU penicillin/100 μg/ml streptomycin, seeded at 1,000 cells/well (40 μl) in white, clear bottom 384-well plates (Greiner Bio-One), and incubated overnight at 37° C./5% CO2. The following day, 100 nl of each compound in DMSO were transferred to individual plate wells by Echo 555 acoustic liquid handling system. After one hour incubation, 1×10^6 of tissue culture-derived T. cruzi trypomastigotes, in 10 μl of phenol red-free RPMI-1640 medium supplemented with 3% heat-inactivated fetal bovine serum and 100 IU penicillin/100 μg/ml streptomycin were added to each well. Plates were then incubated for 6 days at 37° C./5% CO2. Intracellular T. cruzi parasites were quantified by measuring the activity of parasite-expressed β-galactosidase. Ten microliters of a chromogenic β-galactosidase substrate solution (0.6 mM chlorophenol red-β-D-galactopyranoside/0.6% NP-40 in PBS; both reagents from Calbiochem) were added to each well and incubated for 2 h at room temperature. After incubation, absorption was measured at 570 nm on SpectraMax M2 plate reader (Molecular Devices). Measured absorbance values in wells with compounds were divided by the average absorbance value of the plate DMSO controls, and used for calculation of compound EC50 values as described above.

Assay [2] has as its system T. b. brucei Lister427 bloodstream form parasites. Description: T. b. brucei growth inhibition assay (CellTiter-Glo, 48 hours). The settings on record: Trypanosoma brucei. The source says:
Bloodstream form of T. b. brucei Lister427 strain was obtained from the Genomics Institute of the Novartis Research Foundation. This strain was used for carrying out growth inhibition and kill kinetics assays. T. b. gambiense STIB930 and T. b. rhodesiense STIB900 were obtained from Swiss TPH, were used for carrying out the growth inhibition assays.
Bloodstream form T. b. brucei Lister 427 parasites were continuously passaged in HMI-9 medium formulated from IMDM medium (Invitrogen), 10% heat-inactivated fetal bovine serum (FBS), 10% Serum Plus medium supplement (SAFC Biosciences), 1 mM hypoxanthine (Sigma-Aldrich), 50 μM bathocuproine disulfonic acid (Sigma-Aldrich), 1.5 mM cysteine (Sigma-Aldrich), 1 mM pyruvic acid (Sigma-Aldrich), 39 μg/mL thymidine (Sigma-Aldrich), and 14 μL/L beta-mercapthoethanol (Sigma-Aldrich); all concentrations of added components refer to that in complete HMI-9 medium. The parasites were cultured in 10 mL of HMI-9 medium in T75 CELL-STAR tissue culture flasks at 37° C./5% CO2.
To determine compound growth inhibitory potency on T. b. brucei Lister427 bloodstream form parasites, 200 nL of 10-point, 3 fold serially diluted compounds in DMSO were transferred to the wells of white, solid bottom 384-well plates (Greiner Bio-One) by either Echo 555 acoustic liquid handling system or Mosquito. Then, 1×10^4 of T. b. brucei parasites in 40 μL of HMI-9 medium were added to each well, and the plates were incubated for 48 hours at 37° C. in 5% CO2 incubators. Parasite numbers in individual plate wells were determined through quantification of intracellular ATP amount. The CellTiter-Glo luminescent cell viability reagent (Promega) was added to plate wells, and ATP-dependent luminescence signal was measured on Tecan M1000 plate Reader after 30 min incubation. Luminescence values in wells with compounds were divided by the average luminescence value of the plate DMSO controls, and used for calculation of compound IC50 values.
On the technique in general: ATP-based viability assays read luminescence as a measure of living cells.

For assay [3], the system named is Leishmania donovani axenic amastigote. Description: Growth inhibition of Leishmania donovani axenic amastigote. The settings on record: L. donovani growth inhibition, read-out: (d) L.d* IC50. On the procedure: Leishmania donovani axenic amastigote parasites are grown at 37° C., 5% CO2 in media made of RPMI 1640, 4 mM L-glutamine, 20% heat inactivated FBS, 100 units/ml of penicillin and 100 μg/ml of streptomycin, 23 μM Folic Acid, 100 μM Adenosine, 22 mM D-glucose, 25 mM MES. The pH of media is adjusted to 5.5 at 37° C. using HCl. 20 μL of media is first dispensed into 384 well plates and 100 nL of the compounds of invention in DMSO are added to the plate wells. At the same time control compounds and DMSO are added to plates to serve as the positive and negative controls, respectively. 40 μL of parasite culture (9600 parasites) are then added to the plate wells. The plates are then placed into incubators. After 2 day incubation, 20 μL of Cell TiterGlo (Promega) is added to the plate wells. The luminescence signal of each well is measured using the Envision reader (Perkin Elmer). The percentage inhibition of 50%, EC50, is calculated for each of the compounds.

In the case of `N#Cc1ncn(CC(=O)N2Cc3ccc(-c4c(F)cncc4Cl)cc3C2)n1` [Example 23, 1-(2-(5-(3-chloro-5-fluoropyridin-4-yl)isoindolin-2-yl)-2-oxoethyl)-1H-1,2,4-triazole-3-carbonitrile], the IC50 was 100 to 1000 nM in assay [1] and below 100 nM in assay [2].
On the same counts, the results for `N#Cc1ncn(CC(=O)N2Cc3ccc(-c4c(Cl)ccnc4F)cc3C2)n1` [Example 24, 1-(2-(5-(4-chloro-2-fluoropyridin-3-yl)isoindolin-2-yl)-2-oxoethyl)-1H-1,2,4-triazole-3-carbonitrile] are 100 to 1000 nM and 100 to 1000 nM.
In the case of `Cn1cc(-c2ccc3c(c2)CN(C(=O)Cn2cnc(C#N)n2)C3)c(C(F)(F)F)n1` [Example 25, 1-(2-(5-(1-methyl-3-(trifluoromethyl)-1H-pyrazol-4-yl)isoindolin-2-yl)-2-oxoethyl)-1H-1,2,4-triazole-3-carbonitrile], the IC50 in assay [1] and in assay [2] was 100 to 1000 nM throughout.
With `N#Cc1ncn(CC(=O)N2Cc3ccc(-c4ccc(F)nc4C(F)(F)F)cc3C2)n1` [Example 26, 1-(2-(5-(6-fluoro-2-(trifluoromethyl)pyridin-3-yl)isoindolin-2-yl)-2-oxoethyl)-1H-1,2,4-triazole-3-carbonitrile], the IC50 was below 100 nM in assay [1] and 100 to 1000 nM in assay [2].
For `N#Cc1ncn(CC(=O)N2Cc3ccc(-c4ccc(F)cc4C#N)cc3C2)n1` [Example 32, 1-(2-(5-(2-cyano-4-fluorophenyl)isoindolin-2-yl)-2-oxoethyl)-1H-1,2,4-triazole-3-carbonitrile], the IC50 in assay [1] is below 100 nM; in assay [2] it was 100 to 1000 nM; in assay [3], at least 1000 nM.
Consider `N#Cc1ncn(CC(=O)N2Cc3ccc(-c4c(Cl)cccc4Cl)cc3C2)n1` [Example 35, 1-(2-(5-(2,6-dichlorophenyl)isoindolin-2-yl)-2-oxoethyl)-1H-1,2,4-triazole-3-carbonitrile], for which the half-maximal inhibitory concentration (IC50) in assay [1] is below 100 nM; in assay [2], 100 to 1000 nM; in assay [3], at least 1000 nM.
For `N#Cc1ncn(CC(=O)N2Cc3ccc(-c4ccccc4C(F)(F)F)cc3C2)n1` [Example 36, 1-(2-oxo-2-(5-(2-(trifluoromethyl)phenyl)isoindolin-2-yl)ethyl)-1H-1,2,4-triazole-3-carbonitrile], the IC50 in assay [1] was below 100 nM; in assay [2] it was 100 to 1000 nM; in assay [3] it was at least 1000 nM.
On to `COCCOc1cc(F)ccc1-c1ccc2c(c1)CN(C(=O)Cn1cnc(C#N)n1)C2` [Example 39, 1-(2-(5-(4-fluoro-2-(2-methoxyethoxy)phenyl)isoindolin-2-yl)-2-oxoethyl)-1H-1,2,4-triazole-3-carbonitrile], for which the IC50 in assay [1] was at least 1000 nM; in assay [2] it was 100 to 1000 nM.
For `N#Cc1ncn(CC(=O)N2Cc3ccc(-c4ccccc4OC(F)(F)F)cc3C2)n1` [Example 40, 1-(2-oxo-2-(5-(2-(trifluoromethoxy)phenyl)isoindolin-2-yl)ethyl)-1H-1,2,4-triazole-3-carbonitrile], the 50% inhibitory concentration (IC50) in assay [1] and in assay [2] was 100 to 1000 nM in each case.
For `N#Cc1ncn(CC(=O)N2Cc3ccc(-c4ccc(C(F)(F)F)cc4Cl)cc3C2)n1` [Example 42, 1-(2-(5-(2-chloro-4-(trifluoromethyl)phenyl)isoindolin-2-yl)-2-oxoethyl)-1H-1,2,4-triazole-3-carbonitrile], the IC50 in assay [1] is at least 1000 nM; in assay [2], 100 to 1000 nM.
For `N#Cc1ncn(CC(=O)N2Cc3ccc(-c4ccccc4C#N)cc3C2)n1` [Example 43, 1-(2-(5-(2-cyanophenyl)isoindolin-2-yl)-2-oxoethyl)-1H-1,2,4-triazole-3-carbonitrile], the concentration for half-maximal inhibition (IC50) in assay [1] was below 100 nM; in assay [2], 100 to 1000 nM; in assay [3], at least 1000 nM.
As to `N#Cc1ncn(CC(=O)N2Cc3ccc(-c4cccc(C#N)c4F)cc3C2)n1` [Example 44, 1-(2-(5-(3-cyano-2-fluorophenyl)isoindolin-2-yl)-2-oxoethyl)-1H-1,2,4-triazole-3-carbonitrile], the half-maximal inhibitory concentration (IC50) in assay [1] and in assay [2] was 100 to 1000 nM throughout.
Turning to `N#Cc1ccc(-c2ccc3c(c2)CN(C(=O)Cn2cnc(C#N)n2)C3)cc1` [Example 46, 1-(2-(5-(4-cyanophenyl)isoindolin-2-yl)-2-oxoethyl)-1H-1,2,4-triazole-3-carbonitrile], the concentration for half-maximal inhibition (IC50) is 100 to 1000 nM in assay [1], 100 to 1000 nM in assay [2] and at least 1000 nM in assay [3].
With `Cn1nc(C(F)(F)F)cc1-c1ccc2c(c1)CN(C(=O)Cn1cnc(C#N)n1)C2` [Example 48, 1-(2-(5-(1-methyl-3-(trifluoromethyl)-1H-pyrazol-5-yl)isoindolin-2-yl)-2-oxoethyl)-1H-1,2,4-triazole-3-carbonitrile], the IC50 in assay [1] and in assay [2] was 100 to 1000 nM in each case.
For the compound `CC(=O)c1ccccc1-c1ccc2c(c1)CN(C(=O)Cn1cnc(C#N)n1)C2` [Example 50, 1-(2-(5-(2-acetylphenyl)isoindolin-2-yl)-2-oxoethyl)-1H-1,2,4-triazole-3-carbonitrile], the IC50 in assay [1] and in assay [2] was 100 to 1000 nM throughout.
Consider `COc1cc(F)ccc1-c1ccc2c(c1)CN(C(=O)Cn1cnc(C#N)n1)C2` [Example 51, 1-(2-(5-(4-fluoro-2-methoxyphenyl)isoindolin-2-yl)-2-oxoethyl)-1H-1,2,4-triazole-3-carbonitrile], for which the IC50 in assay [1] and in assay [2] was 100 to 1000 nM in each case.
As to `COc1ccc(Cl)cc1-c1ccc2c(c1)CN(C(=O)Cn1cnc(C#N)n1)C2` [Example 52, 1-(2-(5-(5-chloro-2-methoxyphenyl)isoindolin-2-yl)-2-oxoethyl)-1H-1,2,4-triazole-3-carbonitrile], the IC50 in assay [1] and in assay [2] was 100 to 1000 nM each time.
For the compound `N#Cc1ncn(CC(=O)N2Cc3ccc(-c4cccc(F)c4C(F)(F)F)cc3C2)n1` [Example 84, 1-(2-(5-(3-fluoro-2-(trifluoromethyl)phenyl)isoindolin-2-yl)-2-oxoethyl)-1H-1,2,4-triazole-3-carbonitrile], the concentration for half-maximal inhibition (IC50) in assay [1] was below 100 nM; in assay [2] it was 100 to 1000 nM.
For `N#Cc1ncn(CC(=O)N2Cc3ccc(-c4cnccc4C(F)(F)F)cc3C2)n1` [Example 86, 1-(2-oxo-2-(5-(4-(trifluoromethyl)pyridin-3-yl)isoindolin-2-yl)ethyl)-1H-1,2,4-triazole-3-carbonitrile] the same measures were 100 to 1000 nM and 100 to 1000 nM.
